Columns and labels:
[1] = biological target: T1, human GPR40 (Homo sapiens, UniProt O14842, R211H); assay: Measurement of GPR40 agonistic activity (intracellular calcium, FLIPR, CHO cell line expressing human GPR40); type: cell-based; conditions: change in fluorescence intensity one minute after measurement
T1 construct: expressed in transfected cells; host or cells: CHO dhfr- cells stably transfected with plasmid pEF-BOS-dhfr-GPR40
Description: Test Method 1: Measurement of GPR40 Agonistic Activity i) Cloning of Human GPR40
In accordance with procedures as described below, the full-length sequence of GPR40 was obtained by a polymerase chain reaction (PCR) to set human genomic DNA (Clontech) as a template.
Oligonucleotide which consists of a base sequence represented by SEQ ID NO. 1 was used as a forward primer, and oligonucleotide which consists of a base sequence represented by SEQ ID NO. 2 was used as a reverse primer. To each 5′ terminus of the forward primer and the reverse primer described above, a base sequence including the XbaI recognition site is attached. In the PCR, using Taq DNA polymerase (Ex Taq DNA polymerase; TAKARA BIO INC.), a cycle consisting of 94° C. (15 sec)/55° C. (30 sec)/72° C. (1 min) was repeated 30 times in the presence of 5% DMSO. As a result, the DNA fragment of about 0.9 kbp was amplified. This DNA fragment was digested with XbaI, followed by inserting into the XbaI site of plasmid pEF-BOS-dhfr (Nucleic Acids Research, 18, 5322, 1990) to obtain plasmid pEF-BOS-dhfr-GPR40.
The base sequence of GPR40 gene in plasmid pEF-BOS-dhfr-GPR40 was decided by a dideoxy terminator method using a DNA sequencer (ABI377 DNA Sequencer; Applied Biosystems). The base sequence of GPR40 gene was the same with the base sequence represented by SEQ ID NO. 3. The base sequence represented by SEQ ID NO. […] 4 […]
ii) Preparation of GPR40 Stable Expression Cell
A CHO dhfr cell (CHO cell deleting a dihydrofolate reductase (dhfr) gene) was used as a cell in which GPR 40 protein was expressed. In addition, the plasmid pEF-BOS-dhfr-GPR40 obtained in the above i) was used as an expressing plasmid to express GPR40 protein. To a 6 well plate (Asahi Techno Glass Corp.), the CHO dhfr cells were seeded to become 80 to 90% confluent in an aMEM medium having 10% fetal calf serum (FCS), and cultivated overnight. Then, 2 μg of plasmid pEF-BOS-dhfr-GPR40 per well was transferred generetically thereto using a transfection reagent (Lipofectamine 2000; Invitrogen Corporation). After cultivating for 24 hours subsequent to the gene transfer, the cell were diluted and reseeded. On this occasion, the αMEM medium having 10% FCS was changed for an αMEM medium having 10% FCS and no nucleic acid. After 20 days cultivation, formed cell colonies were collected respectively and cultivated, thereby obtaining CHO cells stably expressing GPR40. Among these, cells high-reactive to an oleic acid and a linoleic acid which were intrinsic ligands were selected. […]
iii) Measurement of GPR40 Agonistic Activity
The GPR40 agonistic activity was measured with fluctuation of the intracellular calcium concentration as an index by FLIPR (registered trademark, Molecular Devices Corporation). Hereinafter, test methods will be described.
A CHO cell line expressing human GPR40 was seeded with 6×10^3 per well to a 384-well black plate (Becton, Dickinson and Company), and cultivated in a CO2 incubator overnight. For a luminescent pigment, a Calcium-3 assay kit (Molecular Devices Corporation) was used, and dissolved in 10 ml of a HBSS-HEPES buffer (PH7.4, 1×HBSS, 20 mM HEPES, Invitrogen Corporation) for a bottle. 35.68 mg of probenecid (Sigma) was dissolved in 250 μl of 1M NaOH, and then 250 μl of a HBSS-HEPES buffer was added to blend. 16 ml of a HBSS-HEPES buffer, 640 μl of the luminescent pigment and 32 μl of probenecid were added to blend for a solution of the luminescent pigment per plate. The medium of the plate was removed, 40 μl of the solution of the luminescent pigment per well was dispensed, followed by incubating at room temperature for 2 hours. A compound to be inspected was dissolved in DMSO, and diluted with a HBSS-HEPES buffer. A reaction was initiated by 10 μl of dispensation, the fluctuation of the intracellular calcium concentration was measured by FLIPR. An EC50 value of the compound to be inspected was calculated from the dose-response curve of change in fluorescence intensity one minute after measurement.

[2] = system: normal mice; assay: Single oral glucose tolerance test on normal mice; type: in vivo; conditions: Mus musculus; for inhibition in vivo at 10 mg/kg: 0.5 h, read-out: Reduction rate of blood glucose level (%); for minimal effective dose: read-out: MED
Method: Test Method 3: Single Oral Glucose Tolerance Test on Normal Mice
The anti-hyperglycemic action after glycemic load of the compound to be inspected was examined using normal mice. Hereinafter, the test method will be described.
Male ICR mice which was preparedly reared for one week (6-week-old) was fasted overnight, and used as an animal to be inspected. A compound to be inspected was 0.5% methylcellulose suspension, and the suspension was orally administered 30 minutes before the glucose (2 g/kg) load. With regard to some compounds to be inspected, prior blood drawing was performed (0 min value), and blood glucose levels were measured at 5, 15, 30, 60 and 120 minutes later glucose load when the compound to be inspected was orally administered. A control group was given 0.5% methylcellulose. The evaluation was carried out in the following manner. (Evaluation 1) The reduction rate of blood glucose levels after glucose loading (%) with respect to the control group was calculated at a point of glucose load which is 30 minutes after the oral administration of 10 mg/kg of the compound to be inspected. […] Ex represents example compound numbers.
(Evaluation 2) The reduction rate of blood glucose levels after glucose loading (%) with respect to the control group was calculated at a point of glucose load which is 30 minutes after the oral administration of 10, 3, 1, 0.3 or 0.1 mg/kg of the compound to be inspected. […] Ex represents example compound numbers. In addition, MED describing “below” in Table 3 means that a test was not carried out due to less than dose described.
The area under the blood concentration-time curve (AUC) of blood glucose levels for 0 to 120 minute(s) was calculated from the blood glucose levels before the blood drawing, and the blood glucose levels at 5, 15, 30, 60, and 120 minutes after the glucose load when 30, 10, 3, 1 or 0.3 mg/kg of the compound to be inspected was orally administered.

T1 sequence (O14842 whole entry R211H): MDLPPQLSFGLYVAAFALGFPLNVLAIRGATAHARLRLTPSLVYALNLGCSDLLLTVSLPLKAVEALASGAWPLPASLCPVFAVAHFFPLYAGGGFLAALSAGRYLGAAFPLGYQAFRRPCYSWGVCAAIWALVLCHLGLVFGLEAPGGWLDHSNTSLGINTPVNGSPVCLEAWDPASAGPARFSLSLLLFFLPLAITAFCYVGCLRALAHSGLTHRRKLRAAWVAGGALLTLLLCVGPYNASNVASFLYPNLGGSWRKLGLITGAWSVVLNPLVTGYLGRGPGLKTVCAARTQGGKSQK

Compound `Cc1cc(OCCO)cc(C)c1-c1cccc(CNc2ccc(Cn3oc(=O)[n-]c3=O)cc2)c1C.[Na+]` [Example 70] has an EC50 [1] of 70 nM, an inhibition in vivo at 10 mg/kg [2] of 31% and a minimal effective dose [2] of 10 mg/kg.
In the case of `Cc1cc(OCC[C@@H](C)O)nc(C)c1-c1cccc(COc2ccc(Cn3oc(=O)[n-]c3=O)cc2)c1C.[Na+]` [Example 84], the EC50 [1] is reported as 280 nM, the inhibition in vivo at 10 mg/kg [2] is reported as 35% and the minimal effective dose [2] is reported as < 3 mg/kg.
Compound `Cc1cc(OCC[C@@H](O)CO)cc(C)c1-c1cccc(CNc2ccc(Cn3oc(=O)[n-]c3=O)cc2)c1C.[Na+]` [Example 101] has an EC50 [1] of 230 nM, an inhibition in vivo at 10 mg/kg [2] of 39% and a minimal effective dose [2] of 3 mg/kg.
`Cc1cc(OCC[C@H](C)O)cc(C)c1-c1cccc(COc2ccc(Cn3oc(=O)[n-]c3=O)cn2)c1C.[Na+]` [Example 45] gave an EC50 [1] of 280 nM, an inhibition in vivo at 10 mg/kg [2] of 35% and a minimal effective dose [2] of 1 mg/kg.
`Cc1cc(-c2cccc(CNc3ccc(Cn4oc(=O)[n-]c4=O)cc3)c2C)c(C)cc1OC[C@@H](O)CO.[Na+]` [Example 96] was tested, and the EC50 [1] was 190 nM, the inhibition in vivo at 10 mg/kg [2] was 23% and the minimal effective dose [2] was 10 mg/kg.
Compound `Cc1cc(-c2cccc(CNc3ccc(Cn4oc(=O)[n-]c4=O)cc3)c2C)c(C)cc1OC[C@H](O)CO.[Na+]` [Example 97] has an EC50 [1] of 190 nM, an inhibition in vivo at 10 mg/kg [2] of 29% and a minimal effective dose [2] of 10 mg/kg.
Work on `Cc1cc(OCCO)c(F)cc1-c1cccc(CNc2ccc(Cn3oc(=O)[n-]c3=O)cc2)c1C.[Na+]` [Example 85] yielded an EC50 [1] of 420 nM, an inhibition in vivo at 10 mg/kg [2] of 24% and a minimal effective dose [2] of 3 mg/kg.
With `Cc1c(CNc2ccc(Cn3oc(=O)[nH]c3=O)cc2)cccc1-c1cccc(OCCO)c1C` [Example 107] the EC50 [1] was 93 nM.
Work on `CCC(=O)NCCCOc1cc(C)c(-c2cccc(COc3ccc(Cn4oc(=O)[n-]c4=O)cc3)c2C)c(C)c1.[Na+]` [Example 119] yielded an EC50 [1] of 810 nM, an inhibition in vivo at 10 mg/kg [2] of 26% and a minimal effective dose [2] of 3 mg/kg.
`Cc1cc(OCC[C@@H](C)O)cc(C)c1-c1cccc(COc2ccc(Cn3oc(=O)[n-]c3=O)cn2)c1C.[Na+]` [Example 44] was tested, and the EC50 [1] was 190 nM, the inhibition in vivo at 10 mg/kg [2] was 34% and the minimal effective dose [2] was < 0.3 mg/kg.
`Cc1cc(OC[C@@H](O)CO)cc(C)c1-c1cccc(COc2ccc(Cn3oc(=O)[n-]c3=O)cc2)c1C.[Na+]` [Example 7] showed an EC50 [1] of 410 nM, an inhibition in vivo at 10 mg/kg [2] of 30% and a minimal effective dose [2] of 10 mg/kg.
`Cc1cc(OCCO)c(F)cc1-c1cccc(COc2ccc(Cn3oc(=O)[n-]c3=O)cc2)c1C.[Na+]` [Example 94] showed an EC50 [1] of 640 nM, an inhibition in vivo at 10 mg/kg [2] of 39% and a minimal effective dose [2] of 3 mg/kg.
In the case of `Cc1cc(OCC[C@H](O)CO)cc(C)c1-c1cccc(CNc2ccc(Cn3oc(=O)[n-]c3=O)cc2)c1C.[Na+]` [Example 102], the EC50 [1] is reported as 230 nM, the inhibition in vivo at 10 mg/kg [2] is reported as 48% and the minimal effective dose [2] is reported as 10 mg/kg.
Compound `Cc1cc(OC[C@H](O)CO)cc(C)c1-c1cccc(COc2ccc(Cn3oc(=O)[n-]c3=O)cc2)c1C.[Na+]` [Example 26] has an EC50 [1] of 410 nM, an inhibition in vivo at 10 mg/kg [2] of 27% and a minimal effective dose [2] of 10 mg/kg.
Work on `Cc1cc(-c2cccc(COc3ccc(Cn4oc(=O)[n-]c4=O)cc3)c2C)c(C)cc1OCCC(C)(C)O.[Na+]` [Example 31] yielded an EC50 [1] of 69 nM, an inhibition in vivo at 10 mg/kg [2] of 50% and a minimal effective dose [2] of 1 mg/kg.
For `Cc1cc(-c2cccc(CNc3ccc(Cn4oc(=O)[n-]c4=O)cc3)c2C)c(C)nc1OCCO.[Na+]` [Example 89], the EC50 [1] was 110 nM, the inhibition in vivo at 10 mg/kg [2] was 25% and the minimal effective dose [2] was 3 mg/kg.
In the case of `Cc1cc(OCCC(C)(C)O)nc(C)c1-c1cccc(COc2ccc(Cn3oc(=O)[n-]c3=O)cc2)c1C.[Na+]` [Example 60], the EC50 [1] is reported as 160 nM, the inhibition in vivo at 10 mg/kg [2] is reported as 45% and the minimal effective dose [2] is reported as < 3 mg/kg.
`Cc1cc(OC[C@@H](O)CO)cc(C)c1-c1cccc(CNc2ccc(Cn3oc(=O)[n-]c3=O)cc2)c1C.[Na+]` [Example 68] showed an EC50 [1] of 22 nM, an inhibition in vivo at 10 mg/kg [2] of 23% and a minimal effective dose [2] of 3 mg/kg.
In the case of `Cc1cc(OCC[C@@H](C)O)nc(C)c1-c1cccc(CNc2ccc(Cn3oc(=O)[n-]c3=O)cc2)c1C.[Na+]` [Example 81], the EC50 [1] is reported as 160 nM, the inhibition in vivo at 10 mg/kg [2] is reported as 33% and the minimal effective dose [2] is reported as < 3 mg/kg.
In the case of `COC[C@@H](O)COc1cc(C)c(-c2cccc(COc3ccc(Cn4oc(=O)[n-]c4=O)cc3)c2C)c(C)c1.[Na+]` [Example 56], the EC50 [1] is reported as 820 nM, the inhibition in vivo at 10 mg/kg [2] is reported as 29% and the minimal effective dose [2] is reported as 3 mg/kg.
`Cc1cc(OCCO)cc(C)c1-c1cccc(CNc2ccc(Cn3oc(=O)[n-]c3=O)cn2)c1C.[Na+]` [Example 80] gave an EC50 [1] of 250 nM, an inhibition in vivo at 10 mg/kg [2] of 26% and a minimal effective dose [2] of 10 mg/kg.
Compound `CO[C@@H](CO)COc1cc(C)c(-c2cccc(COc3ccc(Cn4oc(=O)[n-]c4=O)cc3)c2C)c(C)c1.[Na+]` [Example 74] has an EC50 [1] of 320 nM, an inhibition in vivo at 10 mg/kg [2] of 23% and a minimal effective dose [2] of 3 mg/kg.
With `Cc1cc(-c2cccc(COc3ccc(Cn4oc(=O)[n-]c4=O)cc3)c2C)c(C)cc1OCCO.[Na+]` [Example 63] the EC50 [1] was 380 nM, the inhibition in vivo at 10 mg/kg [2] was 22% and the minimal effective dose [2] was < 1 mg/kg.
In the case of `Cc1c(COc2ccc(Cn3oc(=O)[n-]c3=O)cc2)cccc1-c1ccc(OCCC(C)(C)O)c(C)c1C.[Na+]` [Example 32], the EC50 [1] is reported as 68 nM, the inhibition in vivo at 10 mg/kg [2] is reported as 47% and the minimal effective dose [2] is reported as 1 mg/kg.
With `Cc1cc(OCCCNC(=O)C2CC2)cc(C)c1-c1cccc(COc2ccc(Cn3oc(=O)[n-]c3=O)cc2)c1C.[Na+]` [Example 21] the EC50 [1] was 600 nM, the inhibition in vivo at 10 mg/kg [2] was 26% and the minimal effective dose [2] was 3 mg/kg.
In the case of `Cc1cc(OC[C@H](O)CO)cc(C)c1-c1cccc(CNc2ccc(Cn3oc(=O)[n-]c3=O)cc2)c1C.[Na+]` [Example 69], the EC50 [1] is reported as 69 nM, the inhibition in vivo at 10 mg/kg [2] is reported as 34% and the minimal effective dose [2] is reported as 1 mg/kg.
`Cc1c(COc2ccc(Cn3oc(=O)[n-]c3=O)cc2)cccc1-c1cccc(OCCC(C)(C)O)c1C.[Na+]` [Example 27] was tested, and the EC50 [1] was 230 nM, the inhibition in vivo at 10 mg/kg [2] was 42% and the minimal effective dose [2] was 1 mg/kg.

Reference: patent publication US20100267775A1, “OXADIAZOLIDINEDIONE COMPOUND” (priority 2007, published 2010)
